Results as given in ChEMBL document CHEMBL1129930, “Analogues of methotrexate in rheumatoid arthritis. 2. Effects of 5-deazaaminopterin, 5,10-dideazaaminopterin, and analogues on type II collagen-induced arthritis in mice” (J Med Chem, 1997).

What was measured:
Mus musculus [1] = test: Incidence of disease (mouse type II collagen) was scored as the percentage of animals within each experimental group that exhibited joint or limb inflammation on day 44 at intraperitoneal dose of 10 mg/kg; assay type: functional
Mus musculus [2] = test: Incidence of disease (mouse type II collagen) was scored as the percentage of animals within each experimental group that exhibited joint or limb inflammation on day 30 at intraperitoneal dose of 10 mg/kg; assay type: functional
Mus musculus [3] = test: Tested for antiinflammatory activity on mouse type II collagen arthritis as Paw swelling of all animals in each group on day 23 at intraperitoneal dose of 10 mg/kg; assay type: functional
L1210 = test: Concentration required to inhibit the growth of L1210 cells.; assay type: functional, cell-based; details: Mus musculus
Mus musculus [4] = test: Tested for antiinflammatory activity on mouse type II collagen arthritis as Paw swelling of all animals in each group on day 44 at intraperitoneal dose of 10 mg/kg; assay type: functional
Mus musculus [5] = test: Incidence of disease (mouse type II collagen) was scored as the percentage of animals within each experimental group that exhibited joint or limb inflammation on day 23 at intraperitoneal dose of 10 mg/kg; assay type: functional
Mus musculus [6] = test: Tested for antiinflammatory activity on mouse type II collagen arthritis as Paw swelling of all animals in each group on day 37 at intraperitoneal dose of 10 mg/kg; assay type: functional
[7] = Concentration required to inhibit the growth of chang liver cells.; assay type: functional; details: Homo sapiens
Mus musculus [8] = test: Tested for antiinflammatory activity on mouse type II collagen arthritis as Paw swelling of all animals in each group on day 30 at intraperitoneal dose of 10 mg/kg; assay type: functional
Mus musculus [9] = test: Incidence of disease (mouse type II collagen) was scored as the percentage of animals within each experimental group that exhibited joint or limb inflammation on day 37 at intraperitoneal dose of 10 mg/kg; assay type: functional
Mus musculus [10] = test: Incidence of disease (mouse type II collagen) was scored as the percentage of animals within each experimental group that exhibited joint or limb inflammation on day 37 at intraperitoneal dose of 6 mg/kg; assay type: functional
Mus musculus [11] = test: Tested for antiinflammatory activity on mouse type II collagen arthritis as Paw swelling of all animals in each group on day 30 at intraperitoneal dose of 0.75 mg/kg; assay type: functional
Mus musculus [12] = test: Incidence of disease (mouse type II collagen) was scored as the percentage of animals within each experimental group that exhibited joint or limb inflammation on day 44 at intraperitoneal dose of 3 mg/kg; assay type: functional
Mus musculus [13] = test: Tested for antiinflammatory activity on mouse type II collagen arthritis as Paw swelling of all animals in each group on day 30 at intraperitoneal dose of 6 mg/kg; assay type: functional
Mus musculus [14] = test: Incidence of disease (mouse type II collagen) was scored as the percentage of animals within each experimental group that exhibited joint or limb inflammation on day 23 at intraperitoneal dose of 0.38 mg/kg; assay type: functional
Mus musculus [15] = test: Tested for antiinflammatory activity on mouse type II collagen arthritis as Paw swelling of all animals in each group on day 23 at intraperitoneal dose of 0.38 mg/kg; assay type: functional
Mus musculus [16] = test: Tested for antiinflammatory activity on mouse type II collagen arthritis as Paw swelling of all animals in each group on day 44 at intraperitoneal dose of 6 mg/kg; assay type: functional
Mus musculus [17] = test: Incidence of disease (mouse type II collagen) was scored as the percentage of animals within each experimental group that exhibited joint or limb inflammation on day 37 at intraperitoneal dose of 3 mg/kg; assay type: functional
Mus musculus [18] = test: Incidence of disease (mouse type II collagen) was scored as the percentage of animals within each experimental group that exhibited joint or limb inflammation on day 23 at intraperitoneal dose of 1.5 mg/kg; assay type: functional
Mus musculus [19] = test: Tested for antiinflammatory activity on mouse type II collagen arthritis as Paw swelling of all animals in each group on day 44 at intraperitoneal dose of 3 mg/kg; assay type: functional
Mus musculus [20] = test: Tested for antiinflammatory activity on mouse type II collagen arthritis as Paw swelling of all animals in each group on day 23 at intraperitoneal dose of 1.5 mg/kg; assay type: functional
Mus musculus [21] = test: Incidence of disease (mouse type II collagen) was scored as the percentage of animals within each experimental group that exhibited joint or limb inflammation on day 30 at intraperitoneal dose of 0.75 mg/kg; assay type: functional
Mus musculus [22] = test: Incidence of disease (mouse type II collagen) was scored as the percentage of animals within each experimental group that exhibited joint or limb inflammation on day 44 at intraperitoneal dose of 0.75 mg/kg; assay type: functional
Mus musculus [23] = test: Tested for antiinflammatory activity on mouse type II collagen arthritis as Paw swelling of all animals in each group on day 37 at intraperitoneal dose of 0.38 mg/kg; assay type: functional
Mus musculus [24] = test: Tested for antiinflammatory activity on mouse type II collagen arthritis as Paw swelling of all animals in each group on day 23 at intraperitoneal dose of 0.75 mg/kg; assay type: functional
Mus musculus [25] = test: Tested for antiinflammatory activity on mouse type II collagen arthritis as Paw swelling of all animals in each group on day 37 at intraperitoneal dose of 6 mg/kg; assay type: functional
Mus musculus [26] = test: Incidence of disease (mouse type II collagen) was scored as the percentage of animals within each experimental group that exhibited joint or limb inflammation on day 23 at intraperitoneal dose of 6 mg/kg; assay type: functional
Mus musculus [27] = test: Tested for antiinflammatory activity on mouse type II collagen arthritis as Paw swelling of all animals in each group on day 37 at intraperitoneal dose of 1.5 mg/kg; assay type: functional
Mus musculus [28] = test: Incidence of disease (mouse type II collagen) was scored as the percentage of animals within each experimental group that exhibited joint or limb inflammation on day 37 at intraperitoneal dose of 0.75 mg/kg; assay type: functional
Mus musculus [29] = test: Tested for antiinflammatory activity on mouse type II collagen arthritis as Paw swelling of all animals in each group on day 37 at intraperitoneal dose of 0.75 mg/kg; assay type: functional
Mus musculus [30] = test: Tested for antiinflammatory activity on mouse type II collagen arthritis as Paw swelling of all animals in each group on day 44 at intraperitoneal dose of 0.38 mg/kg; assay type: functional
Mus musculus [31] = test: Incidence of disease (mouse type II collagen) was scored as the percentage of animals within each experimental group that exhibited joint or limb inflammation on day 30 at intraperitoneal dose of 6 mg/kg; assay type: functional
Mus musculus [32] = test: Incidence of disease (mouse type II collagen) was scored as the percentage of animals within each experimental group that exhibited joint or limb inflammation on day 44 at intraperitoneal dose of 0.38 mg/kg; assay type: functional
Mus musculus [33] = test: Tested for antiinflammatory activity on mouse type II collagen arthritis as Paw swelling of all animals in each group on day 23 at intraperitoneal dose of 6 mg/kg; assay type: functional
Mus musculus [34] = test: Tested for antiinflammatory activity on mouse type II collagen arthritis as Paw swelling of all animals in each group on day 23 at intraperitoneal dose of 3 mg/kg; assay type: functional
Mus musculus [35] = test: Incidence of disease (mouse type II collagen) was scored as the percentage of animals within each experimental group that exhibited joint or limb inflammation on day 30 at intraperitoneal dose of 0.38 mg/kg; assay type: functional
Mus musculus [36] = test: Incidence of disease (mouse type II collagen) was scored as the percentage of animals within each experimental group that exhibited joint or limb inflammation on day 23 at intraperitoneal dose of 3 mg/kg; assay type: functional
Mus musculus [37] = test: Tested for antiinflammatory activity on mouse type II collagen arthritis as Paw swelling of all animals in each group on day 44 at intraperitoneal dose of 1.5 mg/kg; assay type: functional
Mus musculus [38] = test: Tested for antiinflammatory activity on mouse type II collagen arthritis as Paw swelling of all animals in each group on day 44 at intraperitoneal dose of 0.75 mg/kg; assay type: functional
Mus musculus [39] = test: Tested for antiinflammatory activity on mouse type II collagen arthritis as Paw swelling of all animals in each group on day 30 at intraperitoneal dose of 0.38 mg/kg; assay type: functional
Mus musculus [40] = test: Tested for antiinflammatory activity on mouse type II collagen arthritis as Paw swelling of all animals in each group on day 37 at intraperitoneal dose of 3 mg/kg; assay type: functional
Mus musculus [41] = test: Tested for antiinflammatory activity on mouse type II collagen arthritis as Paw swelling of all animals in each group on day 30 at intraperitoneal dose of 3 mg/kg; assay type: functional
Mus musculus [42] = test: Incidence of disease (mouse type II collagen) was scored as the percentage of animals within each experimental group that exhibited joint or limb inflammation on day 37 at intraperitoneal dose of 1.5 mg/kg; assay type: functional
Mus musculus [43] = test: Incidence of disease (mouse type II collagen) was scored as the percentage of animals within each experimental group that exhibited joint or limb inflammation on day 30 at intraperitoneal dose of 1.5 mg/kg; assay type: functional
Mus musculus [44] = test: Incidence of disease (mouse type II collagen) was scored as the percentage of animals within each experimental group that exhibited joint or limb inflammation on day 44 at intraperitoneal dose of 6 mg/kg; assay type: functional
Mus musculus [45] = test: Incidence of disease (mouse type II collagen) was scored as the percentage of animals within each experimental group that exhibited joint or limb inflammation on day 30 at intraperitoneal dose of 3 mg/kg; assay type: functional
Mus musculus [46] = test: Incidence of disease (mouse type II collagen) was scored as the percentage of animals within each experimental group that exhibited joint or limb inflammation on day 23 at intraperitoneal dose of 0.75 mg/kg; assay type: functional
Mus musculus [47] = test: Incidence of disease (mouse type II collagen) was scored as the percentage of animals within each experimental group that exhibited joint or limb inflammation on day 44 at intraperitoneal dose of 1.5 mg/kg; assay type: functional
Mus musculus [48] = test: Incidence of disease (mouse type II collagen) was scored as the percentage of animals within each experimental group that exhibited joint or limb inflammation on day 37 at intraperitoneal dose of 0.38 mg/kg; assay type: functional
Mus musculus [49] = test: Tested for antiinflammatory activity on mouse type II collagen arthritis as Paw swelling of all animals in each group on day 30 at intraperitoneal dose of 1.5 mg/kg; assay type: functional

## CC(Cc1cnc2nc(N)nc(N)c2c1)c1ccc(C(=O)NC(CCC(=O)O)C(=O)O)cc1 (configuration not stated)
Mus musculus [1]
  Animals: 20%
Mus musculus [2]
  Animals: 0%
Mus musculus [3]
  Paw swelling: 2.24 mm
L1210
  IC50: 7.5 nM
Mus musculus [4]
  Paw swelling: 2.24 mm
Mus musculus [5]
  Animals: 20%
Mus musculus [6]
  Paw swelling: 2.22 mm
[7]
  IC50: 78 nM
Mus musculus [8]
  Paw swelling: 2.23 mm
Mus musculus [9]
  Animals: 20%

## CCCc1c(CNc2ccc(C(=O)NC(CCC(=O)O)C(=O)O)cc2)cnc2nc(N)nc(N)c12 (configuration not stated)
Mus musculus [10]
  Animals: 25%
Mus musculus [11]
  Paw swelling: 2.17 mm
Mus musculus [12]
  Animals: 29%
Mus musculus [13]
  Paw swelling: 2.23 mm
Mus musculus [14]
  Animals: 0%
Mus musculus [15]
  Paw swelling: 2.11 mm
Mus musculus [16]
  Paw swelling: 2.11 mm
Mus musculus [17]
  Animals: 14%
Mus musculus [18]
  Animals: 0%
Mus musculus [19]
  Paw swelling: 2.2 mm
Mus musculus [20]
  Paw swelling: 2.12 mm
Mus musculus [21]
  Animals: 0%
Mus musculus [22]
  Animals: 50%
Mus musculus [23]
  Paw swelling: 2.22 mm
Mus musculus [24]
  Paw swelling: 2.13 mm
Mus musculus [25]
  Paw swelling: 2.22 mm
Mus musculus [26]
  Animals: 0%
Mus musculus [27]
  Paw swelling: 2.19 mm
Mus musculus [28]
  Animals: 0%
Mus musculus [29]
  Paw swelling: 2.16 mm
Mus musculus [30]
  Paw swelling: 2.57 mm
Mus musculus [31]
  Animals: 25%
L1210
  IC50: 6.5 nM
Mus musculus [32]
  Animals: 88%
Mus musculus [33]
  Paw swelling: 2.13 mm
Mus musculus [34]
  Paw swelling: 2.12 mm
Mus musculus [35]
  Animals: 0%
Mus musculus [36]
  Animals: 0%
Mus musculus [37]
  Paw swelling: 2.15 mm
Mus musculus [38]
  Paw swelling: 2.22 mm
Mus musculus [39]
  Paw swelling: 2.13 mm
Mus musculus [40]
  Paw swelling: 2.23 mm
Mus musculus [41]
  Paw swelling: 2.24 mm
[7]
  IC50: 8.2 nM
Mus musculus [42]
  Animals: 0%
Mus musculus [43]
  Animals: 0%
Mus musculus [44]
  Animals: 0%
Mus musculus [45]
  Animals: 14%
Mus musculus [46]
  Animals: 0%
Mus musculus [47]
  Animals: 0%
Mus musculus [48]
  Animals: 75%
Mus musculus [49]
  Paw swelling: 2.14 mm
